Experiments:
Assay in all cases: stopped-flow CO2 hydration assay
Assay type in all cases: biochemical
[1] = biological target: T1, hCA IX (Homo sapiens, UniProt Q16790)
T1 construct: gene CA9; recombinant, tumor-associated transmembrane isoform
In short: (§1)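 Inhibition of recombinant human carbonic anhydrase isozymes was measured by stopped-flow following the enzyme-catalysed CO2 hydration for 5–10 s. Assays used 0.2 mM Phenol Red read at 557 nm, 10 mM Hepes (pH 7.4), 10 mM NaClO4, CO2-saturated water at 25 °C as substrate and 5–12 nM enzyme, with inhibitor preincubated with enzyme for 10 min at room temperature. Inhibitor stocks of 10 mM in DMSO-water 1:1 were diluted down to 0.01 nM in assay buffer, using at least seven concentrations. Inhibition constants (Ki) came from non-linear least-squares fitting with the Cheng–Prusoff equation and are means of at least three determinations.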

[2] = biological target: T2, hCA XII (Homo sapiens, UniProt O43570)
T2 construct: gene CA12; recombinant, tumor-associated transmembrane isoform
T2 sequence (O43570 30-289 limits assumed): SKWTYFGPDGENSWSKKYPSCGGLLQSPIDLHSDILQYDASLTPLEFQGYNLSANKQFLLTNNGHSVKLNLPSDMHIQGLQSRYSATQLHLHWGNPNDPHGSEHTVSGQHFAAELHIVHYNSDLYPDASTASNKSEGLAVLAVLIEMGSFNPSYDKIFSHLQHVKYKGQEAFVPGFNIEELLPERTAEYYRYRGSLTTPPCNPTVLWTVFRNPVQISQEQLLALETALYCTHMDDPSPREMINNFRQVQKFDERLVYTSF
In short: as §1

[3] = biological target: T3, hCA I (Homo sapiens, UniProt P00915)
T3 construct: gene CA1; recombinant, cytosolic isoform
T3 sequence (P00915 2-261): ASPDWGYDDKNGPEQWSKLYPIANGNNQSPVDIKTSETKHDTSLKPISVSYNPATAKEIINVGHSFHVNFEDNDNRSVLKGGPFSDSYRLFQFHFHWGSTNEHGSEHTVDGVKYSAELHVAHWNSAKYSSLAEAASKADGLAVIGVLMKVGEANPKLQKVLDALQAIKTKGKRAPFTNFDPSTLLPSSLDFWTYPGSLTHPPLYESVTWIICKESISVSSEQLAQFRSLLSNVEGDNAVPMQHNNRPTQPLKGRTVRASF
In short: as §1

[4] = biological target: T4, hCA II (Homo sapiens, UniProt P00918)
T4 construct: gene CA2; recombinant, cytosolic isoform
In short: as §1

| SMILES | Ki [1] [nM] | Ki [2] [nM] | Ki [3] [nM] | Ki [4] [nM] |
| --- | --- | --- | --- | --- |
| NS(=O)(=O)c1ccc(NC(=O)CN2C(=O)/C(=C3/C(=O)Nc4ccc(Cl)cc43)SC2=S)cc1 [9d, (Z)-2-(5-(5-Chloro-2-oxoindolin-3-ylidene)-4-oxo-2-thioxothiazolidin-3-yl)-N-(4-sulfamoylphenyl)acetamide] | 6 | 26.3 | 35.8 | 5.2 |
| N#Cc1ccc(/C=C2/SC(=S)N(CC(=O)Nc3ccc(S(N)(=O)=O)cc3)C2=O)cc1 [7i, (E)-2-(5-(4-Cyanobenzylidene)-4-oxo-2-thioxothiazolidin-3-yl)-N-(4-sulfamoylphenyl)acetamide] | 7.3 | 9 | 125 | 56.6 |
| NS(=O)(=O)c1ccc(NC(=O)CN2C(=O)/C(=C\c3ccc(OC(F)(F)F)cc3)SC2=S)cc1 [7c, (E)-2-(4-Oxo-2-thioxo-5-(4-(trifluoromethoxy)benzylidene)thiazolidin-3-yl)-N-(4-sulfamoylphenyl)acetamide] | 9.7 | 158 | 2410 | 954 |
| COc1cc(/C=C2/SC(=S)N(CC(=O)Nc3ccc(S(N)(=O)=O)cc3)C2=O)cc(OC)c1O [7t, (E)-2-(5-(4-Hydroxy-3,5-dimethoxybenzylidene)-4-oxo-2-thioxothiazolidin-3-yl)-N-(4-sulfamoylphenyl)acetamide] | 7.2 | 30.2 | 77.5 | 9.6 |
| NS(=O)(=O)c1ccc(NC(=O)CN2C(=O)/C(=C\c3ccc(Cl)cc3)SC2=S)cc1 [7b, (E)-2-(5-(4-Chlorobenzylidene)-4-oxo-2-thioxothiazolidin-3-yl)-N-(4-sulfamoylphenyl)acetamide] | 35.7 | 9.1 | 349 | 51.6 |
| COc1cccc(/C=C2/SC(=S)N(CC(=O)Nc3ccc(S(N)(=O)=O)cc3)C2=O)c1 [7j, (E)-2-(5-(3-Methoxybenzylidene)-4-oxo-2-thioxothiazolidin-3-yl)-N-(4-sulfamoylphenyl)acetamide] | 15.8 | 73.6 | 228 | 46.1 |
| NS(=O)(=O)c1ccc(NC(=O)CN2C(=O)/C(=C\c3ccc(F)c(F)c3)SC2=S)cc1 [7r, (E)-2-(5-(3,4-Difluorobenzylidene)-4-oxo-2-thioxothiazolidin-3-yl)-N-(4-sulfamoylphenyl)acetamide] | 13.5 | 9.6 | 213 | 19.6 |
| COc1ccc(/C=C2/SC(=S)N(CC(=O)Nc3ccc(S(N)(=O)=O)cc3)C2=O)c(OC)c1 [7p, (E)-2-(5-(2,4-Dimethoxybenzylidene)-4-oxo-2-thioxothiazolidin-3-yl)-N-(4-sulfamoylphenyl)acetamide] | 17.7 | 9.8 | 386 | 8 |
| CCOc1cc(/C=C2/SC(=S)N(CC(=O)Nc3ccc(S(N)(=O)=O)cc3)C2=O)ccc1O [7h, (E)-2-(5-(3-Ethoxy-4-hydroxybenzylidene)-4-oxo-2-thioxothiazolidin-3-yl)-N-(4-sulfamoylphenyl)acetamide] | 5.6 | 63.7 | 22.4 | 7.3 |
| NS(=O)(=O)c1ccc(NC(=O)CN2C(=O)/C(=C3/C(=O)Nc4ccccc43)SC2=S)cc1 [9a, (Z)-2-(4-Oxo-5-(2-oxoindolin-3-ylidene)-2-thioxothiazolidin-3-yl)-N-(4-sulfamoylphenyl)acetamide] | 4.7 | 56.2 | 41.6 | 4.3 |
| NS(=O)(=O)c1ccc(NC(=O)CN2C(=O)/C(=C\c3ccccc3F)SC2=S)cc1 [7d, (E)-2-(5-(2-Fluorobenzylidene)-4-oxo-2-thioxothiazolidin-3-yl)-N-(4-sulfamoylphenyl)acetamide] | 14.3 | 65.4 | 224 | 140 |
| NS(=O)(=O)c1ccc(NC(=O)CN2C(=O)/C(=C\c3ccccc3)SC2=S)cc1 [7a, (E)-2-(5-Benzylidene-4-oxo-2-thioxothiazolidin-3-yl)-N-(4-sulfamoylphenyl)-acetamide] | 8.7 | 32.5 | 185 | 69.2 |
| C=CCOc1ccc(/C=C2/SC(=S)N(CC(=O)Nc3ccc(S(N)(=O)=O)cc3)C2=O)cc1 [7f, (E)-2-(5-(4-(Allyloxy)benzylidene)-4-oxo-2-thioxothiazolidin-3-yl)-N-(4-sulfamoylphenyl)acetamide] | 5.6 | 67.6 | 688 | 320 |
| CC(C)c1ccc(/C=C2/SC(=S)N(CC(=O)Nc3ccc(S(N)(=O)=O)cc3)C2=O)cc1 [7l, (E)-2-(5-(4-Isopropylbenzylidene)-4-oxo-2-thioxothiazolidin-3-yl)-N-(4-sulfamoylphenyl)acetamide] | 51.5 | 41.6 | 430 | 68.6 |
| COc1cc(OC)c(/C=C2/SC(=S)N(CC(=O)Nc3ccc(S(N)(=O)=O)cc3)C2=O)c(OC)c1 [7q, (E)-2-(4-Oxo-2-thioxo-5-(2,4,6-trimethoxybenzylidene)thiazolidin-3-yl)-N-(4-sulfamoylphenyl)acetamide] | 23.6 | 26.3 | 298 | 53.1 |
| NS(=O)(=O)c1ccc(NC(=O)CN2C(=O)/C(=C\c3ccc([N+](=O)[O-])cc3)SC2=S)cc1 [7u, (E)-2-(5-(4-Nitrobenzylidene)-4-oxo-2-thioxothiazolidin-3-yl)-N-(4-sulfamoylphenyl)acetamide] | 7.7 | 9.5 | 70.6 | 8.9 |
| Cc1ccc2c(c1)/C(=C1/SC(=S)N(CC(=O)Nc3ccc(S(N)(=O)=O)cc3)C1=O)C(=O)N2 [9b, (Z)-2-(5-(5-Methyl-2-oxoindolin-3-ylidene)-4-oxo-2-thioxothiazolidin-3-yl)-N-(4-sulfamoylphenyl)acetamide] | 8.9 | 40.6 | 92.2 | 5.5 |
| NS(=O)(=O)c1ccc(NC(=O)CN2C(=O)/C(=C3/C(=O)Nc4ccc(C(F)(F)F)cc43)SC2=S)cc1 [9c, (Z)-2-(4-Oxo-5-(2-oxo-5-(trifluoromethyl)indolin-3-ylidene)-2-thioxothiazolidin-3-yl)-N-(4-sulfamoylphenyl)acetamide] | 13.3 | 37.8 | 319 | 67.8 |
| NS(=O)(=O)c1ccc(NC(=O)CN2C(=O)/C(=C\c3ccc(C(F)(F)F)cc3)SC2=S)cc1 [7e, (E)-2-(4-Oxo-2-thioxo-5-(4-(trifluoromethyl)benzylidene)thiazolidin-3-yl)-N-(4-sulfamoylphenyl)acetamide] | 8 | 9.6 | 854 | 77.5 |
| COc1cc(OC)c(OC)cc1/C=C1/SC(=S)N(CC(=O)Nc2ccc(S(N)(=O)=O)cc2)C1=O [7o, (E)-2-(4-Oxo-2-thioxo-5-(2,4,5-trimethoxybenzylidene)thiazolidin-3-yl)-N-(4-sulfamoylphenyl)acetamide] | 34.7 | 9.5 | 339 | 176 |
| COc1ccc(/C=C2/SC(=S)N(CC(=O)Nc3ccc(S(N)(=O)=O)cc3)C2=O)cc1OC [7n, (E)-2-(5-(3,4-Dimethoxybenzylidene)-4-oxo-2-thioxothiazolidin-3-yl)-N-(4-sulfamoylphenyl)acetamide] | 8.1 | 38.5 | 84 | 15.4 |
| NS(=O)(=O)c1ccc(NC(=O)CN2C(=O)/C(=C\c3cccc(Oc4ccccc4)c3)SC2=S)cc1 [7m, (E)-2-(4-Oxo-5-(3-phenoxybenzylidene)-2-thioxothiazolidin-3-yl)-N-(4-sulfamoylphenyl)acetamide] | 28.2 | 47 | 471 | 55.5 |
| COc1ccc(/C=C2/SC(=S)N(CC(=O)Nc3ccc(S(N)(=O)=O)cc3)C2=O)cc1 [7k, (E)-2-(5-(4-Methoxybenzylidene)-4-oxo-2-thioxothiazolidin-3-yl)-N-(4-sulfamoylphenyl)acetamide] | 9.3 | 58.2 | 78.6 | 12.7 |
| NS(=O)(=O)c1ccc(NC(=O)CN2C(=O)/C(=C\c3cccc([N+](=O)[O-])c3)SC2=S)cc1 [7s, (E)-2-(5-(3-Nitrobenzylidene)-4-oxo-2-thioxothiazolidin-3-yl)-N-(4-sulfamoylphenyl)acetamide] | 8.4 | 9 | 77.9 | 14.6 |
| COc1cc(/C=C2/SC(=S)N(CC(=O)Nc3ccc(S(N)(=O)=O)cc3)C2=O)cc(OC)c1OC [7g, (E)-2-(4-Oxo-2-thioxo-5-(3,4,5-trimethoxybenzylidene)thiazolidin-3-yl)-N-(4-sulfamoylphenyl)acetamide] | 4.2 | 46 | 173 | 31.6 |

Source: PMC9697818, “Design, Synthesis and Biological Assessment of Rhodanine-Linked Benzenesulfonamide Derivatives as Selective and Potent Human Carbonic Anhydrase Inhibitors” (Molecules, 2022)
